Reference: patent publication US7285618B1, “Polypeptides having neutrophil stimulating activity” (Japan Tobacco Inc., priority 2000, dated 2007)
Read-outs that look alike come from different tables or passages of the source. Where a SMILES comes first, the peptide text is derived from it. Where no end group is shown, it is not given here. The star is where a group is joined. For = O=C*

Experiments:
[1] = tested on: undifferentiated HL60 cells; experiment: Migration promoting activity (Chemotaxis Cells), undifferentiated HL60 cells; format: cell-based, human
Procedure: (§1) The migration promoting activity of each of the polypeptides of interest was measured using Chemotaxis Cells (Kurabo) as follows: The differentiated HL60 cells or undifferentiated HL60 cells were washed three times with ice-cooled HBHS and a cell suspension was prepared at a cell density of 4×10^6 cells/ml. The cell suspension was incubated at 37° C. for 10 minutes; thereafter, 500 μl of the cell suspension was transferred to Chemotaxis Cells (2×10^6 cells/Cell), which were put on a micro-well plate filled with pre-heated (37° C.) HBHS containing 1 ml of polypeptide and incubation was performed at 37° C. for 1 hour. Then, the Chemotaxis Cells were removed from the plate and the number of cells that had migrated in each well was counted.
(§2) Migration promoting activity was expressed by a chemotaxis index, or the number of cells that migrated upon stimulation was divided by the number of cells migrated without stimuli.
The activity of the human homologues of COSP-1 and fCyt b (1-15) for promoting β-HA secretion and migration promoting activities were measured following the methods described in Examples 4 and 5, respectively. […]

[2] = tested on: undifferentiated HL60 cells; experiment: β-HA secretion from undifferentiated HL60 cells (Example 12); format: cell-based, human; conditions: data not shown
Procedure: (§3) The activity of the human homologues of COSP-1 and fCyt b (1-15) for promoting β-HA secretion and migration promoting activities were measured following the methods described in Examples 4 and 5, respectively. The activity for β-HA secretion was expressed by the percentage for the maximum amount of secretion upon stimulation with 10 μM of fMLP, whereas the activity for migration was expressed by a chemotaxis index, i.e., the ratio of the number of stimulated migrating cells to that of unstimulated migrating cells.

[3] = tested on: differentiated HL60 cells; format: cell-based, human; conditions: for activity of promoting β-HA secretion / activity for β-HA secretion compared with COSP-1 and fCyt b (1-15): differentiated HL60 cells; for activity of promoting β-HA secretion: Example 12; for activity for β-HA secretion compared with COSP-1 and fCyt b (1-15): human homologues; for β-HA secretion from differentiated HL60 cells (%/total): total = β-HA released with 0.05% Triton X-100
Procedure: a. Cultivation of HL60 Cells and Induction to the Differentiated Neutrophil-Like Cells For cultivation, heat-inactivated FCS (final concentration; 10%), streptomycin (final concentration; 100 mg/l), penicillin G (final concentration of 10^5 units/l) and RPMI-1640 culture solution containing 10 mM Hepes (pH 7.4) were used. Cells were cultivated at a cell density of 2×10^5-1.5×10^6 cells/ml in a plastic flask (80 cm^2, 260 ml, Nunc) at 37° C. under stationary conditions with a 5% of CO2 concentration and a 100% of humidity. […] c. […] Measuring β-HA Enzyme Activity The amount of β-HA secreted into the reaction supernatant was determined by measuring the absorbance at 415 nm of p-nitrophenol that was generated by an enzymatic reaction involving p-nitrophenyl N-acetyl-β-D-glucosaminide as a substrate. To be specific, 90 μl of the reaction supernatant was transferred to a 96-well Immuno plate (Nunc) and 60 μl of a substrate solution (10 mM p-nitrophenyl N-acetyl-β-D-glucosaminide/40 mM citrate, 70 mM Na2HPO4, pH 4.5) was added to initiate an enzymatic reaction. Following a 1-hr reaction at 37° C., 100 μl of a reaction quencher (400 mM glycine, pH 10.7) was added to stop the reaction and the absorbance at 415 nm was measured. As a control, cells were treated with Triton X-100 at a final concentration of 0.05% and the amount of β-HA in the supernatant was measured. As another control, the amount of β-HA secreted from cells upon stimulation with fMLP at a final concentration of 10 μM was measured.

[4] = tested on: differentiated HL60 cells; experiment: Migration promoting activity (Chemotaxis Cells), differentiated HL60 cells; format: cell-based, human; conditions: for activity for migration at the concentrations where β-HA secretion was observed / concentrations of migration activity relative to the concentration for β-HA secretion: Example 12
Procedure: as §1, §2, §3

[5] = tested on: differentiated HL60 cells; experiment: LDH leakage from HL60 cells; conditions: differentiated HL60 cells, Example 4
Procedure: (§10) The differentiated HL60 cells and human leukocyte cells were washed three times with ice-cooled 0.1% BSA containing Hepes buffered Hank's solution (HBHS; 10 mM Hepes, 136.9 mM NaCl, 5.4 mM KCl, 1.2 mM CaCl2, 0.44 mM KH2PO4, 0.49 mM MgCl2, 0.41 mM MgSO4, 0.34 mM Na2HPO4, 5.5 mM glucose, 4.2 mM NaHCO3, pH 7.4). A cell suspension was prepared for each cell type at 5.5×10^6 cells/ml. Cytochalasin B and DNase I were then added to each cell suspension at a final concentration of 5 μg/ml. Ninety μl of each cell suspension was then transferred to an ice-cooled tube (5.0×10^5 cells/tube) and incubated at 37° C. for 10 minute. To each tube, either one of the fractions of polypeptide (or extract) in solution (10 μl) was added and incubated at 37° C. for 10 minutes to stimulate the cells. Immediately after the treatment, 200 μl of ice-cooled reaction quenching buffer (25 mM Tris, 123 mM NaCl, 2.7 mM KCl, pH 7.4) was added to the cell suspensions to stop the stimulation. Thereafter, the tubes were spun down at 4° C. for 60 seconds to precipitate the cell pellets and the β-HA activity and the lactate dehydrogenase (LDH) activity in the supernatant were measured.
(§11) The amount of LDH secreted into the reaction mixture was determined by measuring the absorbance (340 nm) of NADH generated by reduction of that NAD involves dehydrogenation of lactate. Reaction was initiated by adding a 400 μl of a substrate-buffer solution (125 mM 2-amino-2-methyl-1-propanol, 125 mM lithium lactate, 6.25 mM NAD, pH 9.5) to a 100 μl of the reaction supernatant. Following a 1-hr incubation at 37° C., the mixture was quenched in ice water to stop the reaction and the absorbance at 340 nm was measured.
(§12) The LDH enzyme activity secreted in the reaction mixture was expressed as the percentage of the total enzyme activity in cells (%/total) which was the enzyme activity of LDH released upon disruption of the cells with 0.05% Triton X-100.

[6] = tested on: differentiated HL60 cells; experiment: Intracellular Ca2+ concentration (fura-2), differentiated HL60 cells; format: cell-based, human; conditions: differentiated HL60 cells (+)
Procedure: (§4) The differentiated HL60 cells or undifferentiated HL60 cells were washed twice with a Hepes-Na solution (140 mM NaCl, 4 mM KCl, 1 mM NaH2PO4, 1 mM MgCl2, 1.25 mM CaCl2, 5 mM Hepes, 11 mM glucose, 0.2% BSA, pH 7.4). Then, Ca^2+ sensitive fluorescence reagent, fura-2/AM, was added to the cell suspension (4 ml: final concentration, 4 μM). The reaction mixture was then shaken gently at room temperature for 60 minutes, shielded from light in order to incorporate fura-2 into the HL60 cells. Subsequently, the cells were washed twice with a Hepes-Na solution and a cell suspension was prepared at a final cell density of 1.0×10^6 cells/ml. One milliliter of the cell suspension was put into reaction cuvettes and stimulated with various samples under stirring at 30° C. Ratios of fluorescence intensity at 500 nm (F) for an excitation wavelength at 340 nm to that at 380 nm were measured with a fluorimeter (CAF-100, Japan Spectroscopic Co., Ltd.) and [Ca^2+]i was calculated following the formula: [Ca^2+]i(nM)=K×{(F−Fmin)/(Fmax−F)}×A/B, wherein
(§5) Fmax: a ratio of fluorescence intensity at 500 nm for an excitation wavelength at 340 nm to that at 380 nm after all cells were solubilized with 0.1% Triton X-100;
(§6) Fmin: a ratio of fluorescence intensity at 500-nm for an excitation wavelength at 340 nm to that at 380 nm after the whole calcium was chelated with 4 mM EGTA;
(§7) A: fluorescence intensity at 500-nm for an excitation wavelength at 380 nm, when all the calcium was chelated with EGTA;
(§8) B: fluorescence intensity at 500-nm for an excitation wavelength at 380 nm, when all cells were solubilized with Triton X-100;
(§9) K: 224 (nM) (the dissociation constant of fura-2).

[7] = tested on: undifferentiated HL60 cells; experiment: Intracellular Ca2+ concentration (fura-2), undifferentiated HL60 cells; format: cell-based, human
Procedure: as §4, §5, §6, §7, §8, §9

[8] = tested on: differentiated HL60 cells
Procedure: as §10, §11, §12

Compound | migration promoting activity [1] | activity of promoting β-HA secretion [2] | activity of promoting β-HA secretion [3] | activity for β-HA secretion compared with COSP-1 and fCyt b (1-15) [3] | β-HA secretion from differentiated HL60 cells (%/total) [3] [%/total] | migration promoting (attracting) activity [4] | activity for migration at the concentrations where β-HA secretion was observed [4] | concentrations of migration activity relative to the concentration for β-HA secretion [4] | further results
VTFLLPAGWILSHLETYRRPE [Human COSP-1] | not observed | not observed | showed the activity | comparable | 53.5 | showed the activity | desensitized | observed at concentrations lower | 
MTNIRKSHPLMKIIN [Cyt b (1-15)] |  |  |  |  |  |  |  |  | LDH leakage out of the cells [5]: no LDH was found to leak out
fMet-Thr-Pro-Met-Arg-Lys-Ile-Asn-Pro-Leu-Met-Lys-Leu-Ile-Asn (For-MTPMRKINPLMKLIN; listed as Homo sapiens) [Human fCyt b (1-15)] | not observed | not observed | showed the activity | comparable | 65.9 | showed the activity | desensitized | observed at concentrations lower | 
Nc1ncnc2c1ncn2[C@@H]1O[C@H](COP(=O)(O)OP(=O)(O)OP(=O)(O)O)[C@@H](O)[C@H]1O [ATP] |  |  |  |  |  |  |  |  | intracellular Ca2+ concentration [6]: increased; intracellular Ca2+ concentration [7]: increased
CC[C@H](C)[C@H](NC(=O)[C@H](CC(N)=O)NC(=O)[C@@H](NC(=O)[C@H](CCSC)NC=O)[C@@H](C)O)C(=O)N[C@@H](CCCNC(=N)N)C(=O)N[C@@H](CCCCN)C(=O)N[C@@H](CO)C(=O)N[C@@H](Cc1c[nH]cn1)C(=O)N1CCC[C@H]1C(=O)N[C@@H](CC(C)C)C(=O)N[C@@H](CCSC)C(=O)N[C@@H](CCCCN)C(=O)N[C@H](C(=O)N[C@H](C(=O)N[C@@H](CC(N)=O)C(=O)O)[C@@H](C)CC)[C@@H](C)CC [fCyt b (1-15), fMet-Thr-Asn-Ile-Arg-Lys-Ser-His-Pro-Leu-Met-Lys-Ile-Ile-Asn] (For-MTNIRKSHPLMKIIN-OH) |  |  |  |  |  |  |  |  | EC50 [3]: 38 ± 3.4 nM
CC[C@H](C)[C@H](NC(=O)[C@H](CC(N)=O)NC(=O)[C@@H](NC(=O)[C@H](CCSC)NC=O)[C@@H](C)O)C(=O)N[C@@H](CCCNC(=N)N)C(=O)N[C@@H](CCCCN)C(=O)N[C@@H](CO)C(=O)N[C@@H](Cc1cnc[nH]1)C(=O)N1CCC[C@H]1C(=O)N[C@@H](CC(C)C)C(=O)N[C@@H](CCSC)C(=O)N[C@@H](CCCCN)C(=O)N[C@H](C(=O)N[C@H](C(=O)N[C@@H](CC(N)=O)C(=O)O)[C@@H](C)CC)[C@@H](C)CC [fCyt b (1-15), fMet-Thr-Asn-Ile-Arg-Lys-Ser-His-Pro-Leu-Met-Lys-Ile-Ile-Asn] (For-MTNIRKSHPLMKIIN-OH) |  |  |  |  |  |  |  |  | LDH leakage out of the cells [8]: no LDH was found to leak out
